Legend:
[1] = test system: mouse-derived macrophage-like cell line RAW264; assay: Reporter activity in RAW264 cells transiently transfected with the reporter gene vector, luciferase luminescence measured with a luminometer; type: cell-based; conditions: LPS 2 μg/mL
Description: The gene vector constructed as above was transiently introduced into mouse-derived macrophage-like cell line RAW264.
For transfection, Effectene (Qiagen) was used, and the cells at 24 hours after transfection were collected and provided for experiments. To a culture of transiently expressing cells, LPS (Sigma #L2654) was added at a concentration of 2 μg/mL, and the amount of luciferase luminescence at 48 hours after addition was determined by being measured with a luminometer. For use as a control, an LPS-free group was provided. In addition, as a conventional reporter system detecting only IL-1β gene expression, a vector was prepared to have GL4 ligated downstream of a promoter for the IL-1β gene, and cells transfected with this vector were provided for the same test.

[2] = test system: inflammation reporter mouse; assay: Visualization of inflammatory reactions in the inflammation reporter transgenic mouse, bioimaging analyzer (IVIS); type: in vivo; conditions: LPS 3 mg/kg wt intraperitoneally; 0, 4 and 24 hours after administration
Description: The excised and purified gene vector was injected into 200 fertilized eggs at the pronucleus stage which had been taken from mice of the C57BL/6 strain, thereby obtaining 71 pups. The genomic DNA extracted from the body tissue of each pup was used for genotype analysis to thereby obtain 18 founder mice having the gene vector inserted into their genome. Four founder mice were each crossed with a wild-type mouse of the C57BL/6 strain to produce F1 generation mice, which were then examined for reporter molecule reaction when intraperitoneally administered with LPS (Sigma #L2654).
The inflammation reporter mouse thus established was intraperitoneally administered with LPS (Sigma #L2654) at a concentration of 3 mg/kg wt.

Substance	improvement in sensitivity compared to the vector of conventional type ([1]; 48 hours, conventional vector = GL4 downstream of IL-1β gene promoter) [fold]	reporter signals (amount of luciferase luminescence) upon LPS stimulation ([1]; 48 hours after addition, vs LPS-free group, cells transfected with vector of the present invention or of conventional type)	luciferase luminescence signals in the body [2]
vector of the present invention: gene vector: IL-1β promoter/TK promoter, GL4 luciferase, IL-1β partial sequence (17-216 aa), CL1-PEST, SV40 polyA	≥ 2		
lipopolysaccharide [LPS]		significant increase in reporter signals	luminescence signals from luciferase were able to be captured from all tissues of the body

— patent US10765094B2, “Inflammation reporter system” (priority 2014, dated 2020)
